Experimental data taken from patent US7524930B2, “Tumor antigen” (Green Peptide Co., Ltd, priority 2003, dated 2009).

Key:
[1] = tested on: Panc-1 pancreatic adenocarcinoma cell (HLA-A2); assay: 6-h 51Cr-releasing test of peptide-stimulated PBMC against Panc-1 (Example 6); assay type: cell-based, human
Protocol: Meanwhile, the above-described cells cultured for 10 days after stimulation by the peptide were further cultured for 10 days. The cytotoxicity of the obtained cells against the Panc-1 pancreatic adenocarcinoma cell (HLA-A2) was measured by the standard 6-h ^51Cr-releasing test in an E/T ratio of 10:1. The results obtained are presented as % specific lysis (table 7). Together with this step, cytotoxicity against SSTW-9 tumor cell as the HLA-A2^− tumor cell was measured to use as a background that was subtracted from the above-described result.

[2] = tested on: human peripheral blood mononuclear cells (PBMC); assay: CTL induction by peptide from PBMC of HLA-A2-positive cancer patients and healthy individuals, IFN-γ against peptide-pulsed T2 cells (Example 6); assay type: cell-based; conditions: for INF-γ production: peptide-pulsed T2 cells; for Patients in whom peptide-specific HLA-A2-restricted CTL were induced from PBMC: sixteen HLA-A2-positive cancer patients
Protocol: For six peptides (P21, P22, P24, P26, P30, and P32) with a purity of 95% or higher among peptides from P20 to P32 derived from gene 7 and CPSF among the tumor antigen peptide obtained in Example 4, the activity to induce CTL in vitro from human peripheral blood mononuclear cells (PBMC) was examined using IFN-γ production as an indicator. PBMC used was prepared from each peripheral blood of sixteen HLA-A2-positive cancer patients (4 patients with pancreatic cancer, seven patients with stomach cancer, and 5 patients with colon cancer) and six healthy individuals. Specifically, 1×10^5 PBMC was added to each well of 96-well U-bottom type microculture plate (Nunc Corp.) and incubated together with 10 μM of each of the above-described peptides in 200 μl culture medium. The culture medium consisted of 45% RPMI-1640, 45% AIM-V (Invitrogen Corp.,) 10% fetal calf serum (FCS), 100U/ml of human interleukin-2, and […] MEM nonessential amino acid solution (Invitrogen Corp.). At day 4 and day 7 after the start of culturing, half of the culture medium was removed and replaced with the above-described composition containing each corresponding peptide. At day 10 after the start of culturing, the cells were collected and washed, followed by reacting with T2 cells, which were pulsed with each corresponding peptide, to measure the amount of IFN-γ produced.

[3] = tested on: OK-CTLp or OK-CTL clone; assay: Recognition of peptide-pulsed T2 cells by OK-CTLp or OK-CTL clone (IFN-γ ELISA); assay type: cell-based, human
[4] = PBMC of colon cancer patient 12, Panc-1, E/T 10:1
[5] = PBMC of colon cancer patient 13, Panc-1, E/T 10:1
[6] = PBMC of pancreatic cancer patient 2, Panc-1, E/T 10:1, SSTW-9 background subtracted
[7] = PBMC of pancreatic cancer patient 4, Panc-1, E/T 10:1
[8] = PBMC of colon cancer patient 12
[9] = PBMC of colon cancer patient 13
[10] = PBMC of colon cancer patient 14
[11] = PBMC of colon cancer patient 15
[12] = PBMC of colon cancer patient 16
[13] = PBMC of pancreatic cancer patient 1
[14] = PBMC of pancreatic cancer patient 2
[15] = PBMC of pancreatic cancer patient 3
[16] = PBMC of pancreatic cancer patient 4
[17] = PBMC of stomach cancer patient 5
[18] = PBMC of stomach cancer patient 6
[19] = PBMC of stomach cancer patient 7
[20] = PBMC of stomach cancer patient 8
[21] = PBMC of stomach cancer patient 9
[22] = PBMC of stomach cancer patient 10
[23] = PBMC of stomach cancer patient 11
[24] = concentration of peptide 0.1 μM
[25] = PBMC of colon cancer patient 14, Panc-1, E/T 10:1

Sequence | INF-γ production [2, 8] [pg/mL] | INF-γ production [2, 9] [pg/mL] | INF-γ production [2, 10] [pg/mL] | INF-γ production [2, 11] [pg/mL] | INF-γ production [2, 12] [pg/mL] | INF-γ production ([2]; PBMC of healthy individual HD1) [pg/mL] | INF-γ production ([2]; PBMC of healthy individual HD2) [pg/mL] | INF-γ production ([2]; PBMC of healthy individual HD3) [pg/mL] | INF-γ production ([2]; PBMC of healthy individual HD4) [pg/mL] | INF-γ production ([2]; PBMC of healthy individual HD5) [pg/mL] | INF-γ production ([2]; PBMC of healthy individual HD6) [pg/mL] | INF-γ production [2, 13] [pg/mL] | INF-γ production [2, 14] [pg/mL] | INF-γ production [2, 15] [pg/mL] | INF-γ production [2, 16] [pg/mL] | INF-γ production [2, 17] [pg/mL] | INF-γ production [2, 18] [pg/mL] | IFN-γ production [3, 24] [pg/mL] | IFN-γ production ([3]; concentration of peptide 10 μM) [pg/mL] | IFN-γ production ([3]; concentration of peptide 50 μM) [pg/mL] | also measured
QLGQGNLKV [Peptide P23] | 71 | 138 | 48 | 14 | 0 | 0 | 13 | 8 | 6 | 83 | 45 | 0 | 41 | 0 | 72 | 0 | 0 | 6360 | 345 | 160 | % specific lysis [1, 4]: 18%; % specific lysis [1, 5]: 10%; % specific lysis [1, 6]: 53%; % specific lysis [1, 7]: 10%; % specific lysis ([1]; PBMC of stomach cancer patient 7, Panc-1, E/T 10:1): 10%; INF-γ production [2, 19]: 46 pg/mL; INF-γ production [2, 20]: 0 pg/mL; INF-γ production [2, 21]: 0 pg/mL; INF-γ production [2, 22]: 0 pg/mL; INF-γ production [2, 23]: 0 pg/mL; Patients in whom peptide-specific HLA-A2-restricted CTL were induced from PBMC [2]: 25%; IFN-γ production ([3]; concentration of peptide 1 μM): 0 pg/mL
KVHPVIWSL [Peptide P21] | 0 | 0 | 66 | 0 | 140 | 0 | 0 | 58 | 5 | 224 | 97 | 0 | 7 | 0 | 543 | 0 | 0 | 428 | 81 | 195 | % specific lysis [1, 25]: 11%; % specific lysis [1, 7]: 12%; % specific lysis ([1]; PBMC of stomach cancer patient 9, Panc-1, E/T 10:1): 27%; % specific lysis ([1]; PBMC of stomach cancer patient 11, Panc-1, E/T 10:1): 18%; INF-γ production [2, 19]: 0 pg/mL; INF-γ production [2, 20]: 5 pg/mL; INF-γ production [2, 21]: > 1500 pg/mL; INF-γ production [2, 22]: 0 pg/mL; INF-γ production [2, 23]: 136 pg/mL; Healthy individuals in whom CTL were induced from PBMC ([2]; six healthy individuals): 50%; Patients in whom peptide-specific HLA-A2-restricted CTL were induced from PBMC [2]: 31%; IFN-γ production ([3]; concentration of peptide 1 μM): 501 pg/mL
LMLQNALTIM (LMLQNALTTM; Designed peptide having an ability to activate HLA-A2 restricted Cytotoxic T lymphocytes) [Peptide P30, Gene 7 1359-1368] | 0 | 41 | 33 | 0 | 68 | 0 | 0 | 14 | 0 | 0 | 0 | 0 | 12 | 0 | 73 | 0 | 0 | 88 | – | – | % specific lysis [1, 5]: 12%; % specific lysis [1, 25]: 10%; % specific lysis [1, 7]: 11%; % specific lysis ([1]; PBMC of stomach cancer patient 8, Panc-1, E/T 10:1): 18%; % specific lysis ([1]; PBMC of stomach cancer patient 10, Panc-1, E/T 10:1): 26%; INF-γ production [2, 19]: 0 pg/mL; INF-γ production [2, 20]: 146 pg/mL; INF-γ production [2, 21]: 92 pg/mL; INF-γ production [2, 22]: 46 pg/mL; INF-γ production [2, 23]: 0 pg/mL; Patients in whom peptide-specific HLA-A2-restricted CTL were induced from PBMC [2]: 44%; IFN-γ production ([3]; concentration of peptide 1 μM): 7001 pg/mL
LIMLQNALTT (LLMLQNALTT; Designed peptide having an ability to activate HLA-A2 restricted Cytotoxic T lymphocytes) [Peptide P31, Gene 7 1358-1367] | – | – | – | – | – | – | – | – | – | – | – | – | – | – | – | – | – | 443 | – | 314 | –
LIMLQNALT [Peptide P28] | – | – | – | – | – | – | – | – | – | – | – | – | – | – | – | – | – | 898 | 0 | 144 | –
LLLKYTEKL [Peptide P24] | – | – | – | – | – | – | – | – | – | – | – | – | – | – | – | – | – | 728 | 103 | 2 | –
LLRRADFHV (Designed peptide having an ability to activate HLA-A2 restricted Cytotoxic T lymphocytes) [Peptide P26, Gene 7 1296-1304] | 0 | 0 | 0 | 40 | 45 | 0 | 0 | 0 | 0 | 13 | 0 | 0 | 35 | 0 | 77 | 53 | 0 | 141 | 1239 | 0 | % specific lysis ([1]; PBMC of colon cancer patient 15, Panc-1, E/T 10:1): 12%; % specific lysis [1, 6]: 36%; % specific lysis [1, 7]: 20%; % specific lysis ([1]; PBMC of stomach cancer patient 5, Panc-1, E/T 10:1): 11%; INF-γ production [2, 19]: 0 pg/mL; INF-γ production [2, 20]: 11 pg/mL; INF-γ production [2, 21]: 8 pg/mL; INF-γ production [2, 22]: 0 pg/mL; INF-γ production [2, 23]: 0 pg/mL; Patients in whom peptide-specific HLA-A2-restricted CTL were induced from PBMC [2]: 31%; IFN-γ production ([3]; concentration of peptide 1 μM): 418 pg/mL
TQLATYSFEV (Designed peptide having an ability to activate HLA-A2 restricted Cytotoxic T lymphocytes) [Peptide P32, CPSF 456-465] | 57 | 0 | 0 | 0 | 4 | 0 | 0 | 0 | 0 | 0 | 0 | 0 | 12 | 0 | 0 | 0 | 0 | – | – | – | % specific lysis [1, 4]: 18%; INF-γ production [2, 19]: 0 pg/mL; INF-γ production [2, 20]: 0 pg/mL; INF-γ production [2, 21]: 0 pg/mL; INF-γ production [2, 22]: 0 pg/mL; INF-γ production [2, 23]: 0 pg/mL; Patients in whom peptide-specific HLA-A2-restricted CTL were induced from PBMC [2]: 7%
TMLPHHAGL [Peptide P25] | – | – | – | – | – | – | – | – | – | – | – | – | – | – | – | – | – | 69 | 25 | 122 | IFN-γ production ([3]; concentration of peptide 1 μM): 1569 pg/mL
